The test system of assay [1] is housefly (Musca domestica) antenna. Description: GC-EAD antennal response, housefly. The settings on record: female housefly antenna; synthetic mixture, about 100 ng of each compound; FIG. 3. The text has this:
The sesquiterpene hydrocarbons and their derivatives disclosed herein have been identified as suitable insect repellents by testing via a gas chromatographic-electroantennographic detection (GC-EAD) method as described in Example 1 below. This method can be used to efficiently screen for potentially behaviorally active compounds, including insect repellents, attractants, deterrents, or attraction-inhibitors from complex natural sources or synthetic mixtures.
The GC-EAD responses of the female housefly antenna were tested on a synthetic mixture of 1-octen-3-ol, a known attractant used as a positive control, and representative sesquiterpene hydrocarbons and derivatives, (+)-longipinene, (−)-isolongifolene, (+)-longifolene, β-caryophyllene, α-humulene, and isolongifolenone, with about 100 ng of each compound in the mixture.
The GC-EAD responses of the male housefly antenna were tested on a synthetic mixture of 1-octen-3-ol, and two representative sesquiterpenes, β-caryophyllene and isocaryophyllene, with about 100 ng of each compound in the mixture.
(§1) The following procedures were employed to test the EAD response of an insect antenna to a repellent compound. The GC-EAD technique provides an efficient tool for screening behaviorally active repellents. Several synthetic mixtures of potential insect repellent candidates, mostly sesquiterpene hydrocarbons and derivatives, were analyzed in splitless mode using a Varian CP-3800 GC equipped with a polar column (Innowax; 1.0 μm film thickness, 30 m×0.53 mm ID; J & W Scientific), and a 1:1 effluent splitter that allowed simultaneous flame ionization detection (FID) and EAD of the separated volatile compounds. Helium was used as the carrier gas, and the injector temperature was 220° C. The column temperature was 50° C. for 2 min, rising to 240° C. at 10° C./min, then held for 10 min. The outlet for the EAD was held in a humidified air stream flowing at 0.5 liter/min. over an antennal preparation. A glass capillary indifferent electrode filled with Beadle-Ephrussi Ringer, and grounded via a silver wire, was inserted into the severed insect's head with the antennae. A similar recording electrode connected to a high-impedance DC amplifier with automatic baseline drift compensation was placed in contact with the distal end of one antenna (Zhang et al., Chemoecology, 10:69-80 (2000)). The antennal signals were stored and analyzed on a PC equipped with a serial IDAC interface box and the program EAD ver. 2.5 (Syntech, Hilversum, The Netherlands). The compound 1-octen-3-ol (known attractant for many flies and mosquitoes) was included in most of the synthetic mixtures, as a positive control. The results of the experiments are shown in FIGS. 1-10 and described above.

For assay [2], the system named is female mosquito Culex pipiens antenna. Description: GC-EAD antennal response, Culex pipiens. To be noted: female Culex pipiens antennae; about 100 ng of each compound; responses weak, but repeatable; FIGS. 7 and 8. The protocol: The GC-EAD responses of the female mosquito Culex pipiens antenna were tested on a synthetic mixture of 1-octen-3-ol, and two sesquiterpene hydrocarbons, β-caryophyllene and isocaryophyllene, with about 100 ng of each compound in the mixture.
The GC-EAD responses of the female mosquito Culex pipiens antenna were tested on a synthetic mixture of 1-octen-3-ol, and representative sesquiterpene hydrocarbons and derivatives including (+)-longipinene, (−)-isolongifolene, (+)-longifolene, β-caryophyllene, and isolongifolenone, with about 100 ng of each compound in the mixture.
Antennal responses were weak, but repeatable, thus are considered to be true responses.
as §1

Assay [3] deals with female antennae of sand fly Phlebotomus papatasi and mosquitoes Aedes aegypti, Anopheles gambiae, Anopheles stephensi. Description: GC-EAD responses of sand fly and three mosquitoes to synthetic mixtures. To be noted: about 100 ng of each compound, on one or more of the sand fly or the mosquitoes, FIGS. 9 and 10. As for the experimental part: The GC-EAD responses of female antennae of the sand fly, Phlebotomus papatasi, and three species of mosquitoes, Aedes aegypti, Anopheles gambiae, and anopheles stephensi were tested on a synthetic mixture of 1-octen-3-ol, six sesquiterpene hydrocarbons including (+)-longipinene, (−)-isolongifolene, (+)-longifolene, β-caryophyllene, isolongifolenone, and α-humulene, and several known insect repellents including ZE-nepetalactone, EZ-nepetalactone, with about 100 ng of each compound in the mixture.
The GC-EAD responses of female antennae of the sand fly, Phlebotomus papatasi, and three species mosquitoes, Aedes aegypti, Anopheles gambiae, and anopheles stephensi were tested on a synthetic mixture of 1-octen-3-ol, linalool, β-caryophyllene oxide, isocaryophyllene, β-caryophyllene, and α-humulene, and DEET, with about 100 ng of each compound in the mixture.
as §1

The subject of assay [4] is antennae of housefly, sand fly, and mosquitoes (Aedes aegypti, Aedes increpitus, Anopheles gambiae). Description: GC-EAD antennal responses to SPME samples of patchouli essential oil. The settings on record: component of patchouli essential oil SPME sample; response by one or more of the insects; FIG. 2. As for the experimental part:
as §1, with “control.” for “control. The results of the experiments are shown in FIGS. 1-10 and described above.”

For assay [5], the system named is Aedes aegypti. Description: K&D module behavioral bioassay (topical repellency, biting). It counts as in vivo. As for the experimental part: (§2) The bioassays were conducted with a six-cell in vitro K&D module system, as disclosed in Klun and Debboun, J. Med. Entomol. 37:177-181 (2000), loaded with an “artificial blood” (CPDA+ATP) solution.
(§3) Clove essential oil, patchouli oil, and EAD-active potential repellents, β-caryophyllene, isocaryophyllene, (+)-longifolene, and their 1:1:1 mixture, plus α-guaiene, caryophyllene oxide, and a β-caryophyllene ketone, were tested using the six-cell in vitro K&D module system (Klun and Debboun, J. Med. Entomol. 37:177-181 (2000)) loaded with an “artificial blood” (CPDA+ATP) solution on both Ae. aegypti and An. stephensi in a dose-response fashion. The K&D in vitro assay system has three components: (1) a Plexiglas™ 29.7 cm.×7.1 cm K&D module composed of six adjacent cells, each designed to hold mosquitoes and each having a rectangular 3×4 cm floor hole that is opened and closed by a sliding door; (2) a Plexiglas™ six-well 29.7 cm×7.1 cm water water-bath warmed (38° C.) reservoir with six 3×4 cm wells designed to match the sliding-door openings of the K&D module base and to contain 6 mL warmed “artificial blood” wells covered with a collagen membrane; and (3) a 29.7 cm×7.1 cm'0.4 cm Teflon® separator having six rectangular openings like the K&D module. The K&D module was connected to a constant temperature water circulator at 38° C. The cells were covered with an Edicol collagen membrane strip. Nylon organdy strips with ink cell patterns were numbered and randomly treated with […] of the tested chemical in ethanol (ethanol alone as blank control), plus DEET (ca. 10 μg/cm^2) as a positive control. This treated nylon organdy strip was placed on top of the collagen membrane. The upper section of the K & D module with the six cells each containing 5 mosquitoes (5-10 d old, starved for 24 hr before testing) was placed on top of the nylon strip. The doors to the cells were slid open so the mosquitoes could be free to feed on the “artificial blood” via the collagen membrane if they were hungry. The experiments were allowed to run for 3 minutes, and the number of mosquitoes feeding (biting) in each cell was recorded. After each experiment, the nylon and collagen strips were removed. The CPDA+ATP solution was removed and allowed to dry prior to starting the next experiment. The experiments on each chemical and each mosquito species were run three times before the bottom section with circulated water was cleaned prior to use again.

Assay [6] deals with Anopheles stephensi. Described as above. It counts as in vivo. The protocol:
as §2, §3

Assay [7] concerns Aedes aegypti. Description: Y-tube olfactometer behavioral bioassay (spatial repellency). The class given is in vivo. As for the experimental part: (§4) Aegypti and An. stephensi, and one species of sand fly, P. papatasi. Both the mosquitoes and the sand flies used in the study were from colonies maintained at the Walter Reed Army Institute of Research, Department of Entomology, Silver Spring, Md. This Y-tube bioassay system, equipped with CO2-enriched air (ca. 1 l/min) as an attractant, was made from three clear acrylic tubes (4″ diameter; 12″ length) with symmetrical 120° angles among the three tube arms; and a screen butterfly valve on the top part of the bottom releasing tube. These spatial repellency tests were carried out during 8:00 am-12:00 pm (photophase) time period for Ae. aegypti and 1:00-5:00 pm (shifted scotophase) time period for the species of night-flying mosquitoes and sand fly in a temperature and humidity controlled testing room (23-25° C. and 20-40% RH). Female mosquitoes or sand flies were stored at ˜25-26° C., 50-89% RH, 12:12 hr. (L/D), fed with 10% sucrose solution before testing. The candidate chemical (individual or mixture) dispenser and a blank control were placed in the upper left or right arm of the Y-tube before releasing 25-40, 6 to 10 day-old female mosquitoes (or 3 to 10 day-old sand flies) into the bottom tube via a small hole. After a 30-60 sec acclimation period, the butterfly screen valve (door) on the top of the bottom tube was opened. After 10 min., the valve was closed and the numbers of mosquitoes or sand flies in each arm (including the bottom tube) were counted. In order to minimize the position effect, the same experiment was repeated once with the treatment and blank control arms shifted using a new (clean) Y-tube olfactometer and a new batch of mosquitoes/sand flies. Data from these two replicates were pooled for χ2 goodness of fit test (df=1) between the treatment and blank control.

Assay [8] concerns Anopheles stephensi. The description is as above. It counts as in vivo. The protocol:
as §4

[9] abbreviates: 10 μg/cm^2, DEET values are the positive control run with the chemical.
Setting [10] is: Aedes aegypti females, release rate per chemical (1-60 mg/day), 10 min.
The mark [11] stands for this setting: Anopheles stephensi females, release rate per chemical (β-Caryophyllene 10 mg/day), 10 min.

Results on 6 molecules are retold here after patent publication US8057829B2, “Methods for repelling insects using sesquiterpene hydrocarbons and their derivatives” (Sterling International Inc., priority 2008, dated 2011).

For `CC1=CC[C@@H]2[C@H]3[C@H]1[C@@]2(C)CCCC3(C)C` [(+)-longipinene, (+)-Longipinene], the GC-EAD antennal activity result is on record as “active” in assay [1], “active” in assay [2] and “antennally active” in assay [3].

Take `CC1(C)C2=CC(=O)CC(C)(C)[C@]23CC[C@H]1C3` [isolongifolenone, reference compound]: the GC-EAD antennal activity entry in assay [1] was “inactive”; in assay [3] it was “does not appear to have elicited antennal activity”.

As to `C=C1C2CCC3(C)C(C2)C(C)CCC13C` (stereo not shown) [seychellene], in assay [4], the GC-EAD antennal activity entry is listed as “elicited EAD-activity”.

For `C=C(C)[C@@H]1CCC(C)=C2CC[C@H](C)[C@@H]2C1` [α-Bulnesene, α-bulnesene], the “% of biting (±SE) (N = 3)” value in the assay on Aedes aegypti [5] (setting [9]) came to 73 ± 7b %; in the assay on Aedes aegypti [5] (100 μg/cm^2), 0 ± 0a %; in the assay on Aedes aegypti [5] (500 μg/cm^2), 0 ± 0a %; with Aedes aegypti [5] (1000 μg/cm^2) it was 0 ± 0a %; in the assay with Anopheles stephensi [6] (setting [9]), 87 ± 7b %; with Anopheles stephensi [6] (100 μg/cm^2), 0 ± 0a %. Further, the “% of biting (±SE) (N = 3)” value in the assay on Anopheles stephensi [6] (500 μg/cm^2) and in the assay on Anopheles stephensi [6] (1000 μg/cm^2) was 0 ± 0a % each time. Further, in assay [4], the GC-EAD antennal activity entry is recorded as “elicited EAD-activity”. Also, the entries for the “Number of mosquitoes in each arm: Blank” value with Aedes aegypti [7] (setting [10]) and with Anopheles stephensi [8] (setting [11]) were 35 and 33, respectively. Moreover, the “Number of mosquitoes in each arm: Bottom” value in the assay with Aedes aegypti [7] (setting [10]) was 24; in the assay with Anopheles stephensi [8] (setting [11]), 25. Further, the “Number of mosquitoes in each arm: Repellent” value came to 11 in the assay with Aedes aegypti [7] (Aedes aegypti females, release rate per chemical (1-60 mg/day), 10 min, two replicates pooled) and 13 in the assay on Anopheles stephensi [8] (Anopheles stephensi females, release rate per chemical (1-60 mg/day; β-Caryophyllene 10 mg/day), 10 min). In addition, the “SAI (Spatial Activity Index)” value with Aedes aegypti [7] (Aedes aegypti, (Nc − Nt)/(Nc + Nt), −1 to 1, zero indicating no response) was 0.52; in the assay on Anopheles stephensi [8] (Anopheles stephensi, β-Caryophyllene 10 mg/day), 0.43.

On to `CC1=CCC2CC3C(C)CCC13C2(C)C` (stereo not drawn) [α-patchoulene, α-Patchoulene], for which, in assay [4], the GC-EAD antennal activity result is given as “elicited EAD-activity”.

Turning to `CC1CCC2=C1CC1CCC2(C)C1(C)C` (stereo not drawn) [β-patchoulene, β-Patchoulene], in assay [4], the GC-EAD antennal activity result is recorded as “elicited EAD-activity”.
